Measured values: paper PMC7385626 (Scientific Reports, 2020)
“And” between values parts separate entries of the source, which are not always exact repeats. Equal entries are not always repeated.

Tests used:
C6 = test: BrdU Cell Proliferation Assay (BCPA); format: cell-based; conditions: BrdU ELISA, 24 h, mean ± SD of three experiments
Text: (§1) The antiproliferative activities of Ag(I) molecules and the starting molecules of the parent molecules, N-bishydeten and [Ag(CN)2]^− compound, on cells, were monitored utilizing by the BrdU Cell Proliferation Assay (BCPA) (Fig. 6).
(§2) The antiproliferative activity of the 2, 3, 4, [Ag(CN)2]^− and 5FU against various cell lines (HeLa ATCC CCL-2, C6 cells ATCC CCL-107, HT29 ATCC HTB-38, and Vero ATCC CCL-81) were preserved and maintained in Dulbecco’s modified eagle’s medium, supplemented with %2 antibiotic (Streptomycin-Penicillin) solution and 10% fetal bovine serum.
(§3) The cell suspension including 5×10^3 cells in 100 µL was supplied into the well cell plates (96-well cell). The therapies of these cells with 2, 3, 4 and [Ag(CN)2]^− in DMSO (max 0.1% DMSO) and 5-Florouracil (5 FU) molecule in DMSO (max 0.1% DMSO) separately at concentration 0.25, 0.50, 1.00, 1.50, 2.00, 2.50, 3.75, and 5.00 µg/mL were carried out. The last volume was adapted to 200 µL by mixture and DMEM and also incubated for 24 h at 37°C with 5% CO2. The antiproliferative activities of the 2, 3, 4 and [Ag(CN)2]^− were determined with using BrdU Cell proliferation ELISA Kit conforming to manufacturer’s assay.
(§4) IC50 values the concentration of a factor which required for other method of in vitro.

HeLa = test: BrdU Cell Proliferation Assay (BCPA); format: cell-based; conditions: BrdU ELISA, 24 h, mean ± SD of three experiments
Text: as §1, §2, §3, §4

Vero = test: BrdU Cell Proliferation Assay (BCPA); format: cell-based; conditions: BrdU ELISA, 24 h, normal cell line, mean ± SD of three experiments
Text: as §1, §2, §3, §4

HT29 = test: BrdU Cell Proliferation Assay (BCPA); format: cell-based, human; conditions: BrdU ELISA, 24 h, mean ± SD of three experiments
Text: as §1, §2, §3, §4

in vitro = conditions: human (HT-29, HeLa), rat (C6), African green monkey (Vero)
Text: (§5) LDH activities were measurement at 492-630 nm using a microplate reader. The percentage cytotoxicity was find with using the equation, […], where experimental value is the test-molecule treated cells, and high control is Triton X-100 treated cells, and low standard or control (spontaneous LDH enzyme) is the untreated cells.

HT29 cells = conditions: human
Text: as §5

CT-DNA = conditions: literature comparison; ref [59],[60]; cited from earlier work
[1] = test system: HeLa, HT29, C6 and Vero cells; test: BrdU Cell Proliferation Assay, range over the cell lines; format: cell-based; conditions: BrdU assay
Text: as §1, §2, §3, §4

BSA = BSA (Bos taurus, UniProt P02769); test: UV–Visible absorption titration, BSA binding constant; design: species or system Bovine
Text: UV–Visible absorption spectroscopy technique was also used to study interactions between BSA and 1–4. […] The some results of [BSA]/(εa − εf) = [BSA]/(εb − εf) + 1/[Kb(εb − εf)] in Fig. 9, used and also obtained. The binding constants for the 1–4 were found as 2.4 ± 0.22 × 10^4 M^−1, 4.3 ± 0.29 × 10^4 M^−1, 3.4 ± 0.23 × 10^4 M^−1 and 4.8 ± 0.29 × 10^4 M^−1, respectively. In Fig. 9, the increase in BSA concentrations leads to a change in the absorption of the complexes resulting in hypochromism for 1 and 3 and hyperchromism for 2 and 4.
To obtain the interaction act of the molecules with calf thymus DNA and also to determine the binding constants (Kb) UV–Visible absorption spectroscopy method was utilized. Indeed, 2.5 mg calf thymus DNA in this part was dissolved in Tris–HCl buffer and stabile pending seven days in the refrigerator. The concentration level of calf thymus DNA was calculated spectrophotometrically assay at 260 nm. This method was done according to previous studies.

S. aureus ATCC29213 [2] = test: Disc diffusion assay; format: cell-based, Staphylococcus aureus
Method: (§6) Therefore, the pathogen bacterial flora and the opportunistic agents may be taken into consideration both in the management of cancer patients and in individual susceptibility to cancer. Indeed, dual acting factors with antimicrobial and antiproliferative potentials can result in improved therapeutic efficacy for cancer cell patients or reduced cancer predisposition. […]. In this study, 10 microbial cultures of this part, belonging to ten types of bacterial were used. The culture was grown in Mueller–Hinton Broth (Merck) for all the bacterial strains at 36 °C. Antimicrobial test was carried out by using disc-diffusion assay utilizing 100 µL of suspension with 10^8 CFU/mL of bacteria and 10^6 CFU/mL of yeast spread on Nutrient Agar and Potato Dextrose Agar, respectively. Also, the blank disc (Oxoid = 6 mm in diameter) was impregnated with 20 µL of each substance (105 µg/disc) and placed on the inoculated agar. Negative controls ([…]) were prepared using the same solvent (water) employed to dissolve each substance. […]. The inoculated plate was incubated at 36 °C for clinical bacterial strains. Antimicrobial activities were evaluated by obtaining the zone of inhibitory effect against the test organisms.

B. subtilis ATCC6633 [3] = test: Disc diffusion assay; format: cell-based, Bacillus Subtilis
Method: as §6

B. cereus DSM 4312 [4] = test: Disc diffusion assay; format: cell-based, Bacillus Cereus
Method: as §6

St. pyogenez ATCC176 [5] = test: Disc diffusion assay; format: cell-based, Steptococcus Pyogerez
Method: as §6

E. coli 111 [6] = test: Disc diffusion assay; format: cell-based, Escherichia coli
Method: as §6

E. aerogenes 2924 = test: Disc diffusion assay; format: cell-based, Enterobacter Aerogenes
Method: as §6

S. gallinarum [7] = test: Disc diffusion assay; format: cell-based, Salmonella Gallinarum
Method: as §6

S. enteridis ATCC13076 [8] = test: Disc diffusion assay; format: cell-based, Salmonella Enteritidis
Method: as §6

S. aureus ATCC29213 [9] = test: Serial microdilution assay (MIC); format: cell-based, Staphylococcus aureus
Method: (§7) […]. […] Four types of gram-positive bacterial strains (St. pyogenez, B. subtilis, B. cereus, S. aureus) and five types of the gram-negative (S. enteridis, E. aerogenes, P. aeruginosa, E. coli, and S. gallinarum) were sensitive to 4 and 1. […]. The minimal inhibitory concentration value was studied for the microorganism cells, which evaluated to sensitive the substances and they tested in the disc-diffusion method. Inoculate of microorganism was prepared utilizing 12 h suspensions and broth cultures were adjusted to 0.5 McFarland turbidity standard. Each substance was dissolved in 10% dimethyl sulfoxide which diluted to the highest concentration (1000 µg/mL) for testing. […]. Also, prepared suspensions for standard microorganisms were added to each dilution in a 1:1 ratio. Growth act of microorganism cells was determined visually after incubation at 36 °C. The minimum concentration was no visible growth which was taken as the MIC.

B. subtilis ATCC6633 [10] = test: Serial microdilution assay (MIC); format: cell-based, Bacillus Subtilis
Method: as §7

B. cereus DSM 4312 [11] = test: Serial microdilution assay (MIC); format: cell-based, Bacillus Cereus
Method: as §7

St. pyogenez ATCC176 [12] = test: Serial microdilution assay (MIC); format: cell-based, Steptococcus Pyogerez
Method: as §7

E. coli 111 [13] = test: Serial microdilution assay (MIC); format: cell-based, Escherichia coli
Method: as §7

P. aeruginosa ATCC9027 = test: Serial microdilution assay (MIC); format: cell-based, Pseudomonas Aureginosa
Method: as §7

E. aerogenes ATCC2924 = test: Serial microdilution assay (MIC); format: cell-based, Enterobacter Aerogenes
Method: as §7

S. gallinarum [14] = test: Serial microdilution assay (MIC); format: cell-based, Salmonella Gallinarum
Method: as §7

S. enteridis ATCC13076 [15] = test: Serial microdilution assay (MIC); format: cell-based, Salmonella Enteritidis
Method: as §7

[16] = test system: bacterial strains (four gram-positive, five gram-negative); test: Serial microdilution assay (MIC), range over the bacterial strains; format: cell-based
Method: as §7

## O=c1[nH]cc(F)c(=O)[nH]1 [5FU, 5-fluorouracil, reference compound]
C6; Rattus norvegicus, C6
  IC50: 217 ± 19 µM
HeLa; Homo sapiens, HeLa
  IC50: 276 ± 17 µM
Vero; Chlorocebus sabaeus, Vero
  IC50: 258 ± 21 µM
HT29; Homo sapiens, HT-29
  IC50: 258 ± 21 µM
In vitro
  cytotoxicity: 15 to 25%
HT29 cells
  cytotoxicity against HT29 cells (LDH): 9–11%
CT-DNA
  binding constant with DNA (reported): 97000 M⁻¹

## N.N.[Cl][Pt][Cl] [Cisplatin, cisplatin, reference compound]
C6
  IC50: 208 ± 23 µM
HeLa
  IC50: 230 ± 15 µM
Vero
  IC50: 235 ± 19 µM
HT29
  IC50: 153 ± 14 µM
[1]; HeLa, HT29, C6, Vero
  IC50: 153 to 235 µM

## NCCN(CCO)CCO [N-bishydeten, N, N-bis (2-hydroxyethyl) -ethylenediamine, reference compound]
[1]; same administrative dose, data not shown
  antiproliferative effect (in words): no antiproliferative effects

## [Ni(N-bishydeten)Ag3(CN)5] [Complex 1]
BSA
  binding constant with BSA: 2.4 ± 0.22 × 10^4 M^−1 and 2.4 x 10^4
S. aureus ATCC29213 [2]
  inhibition zones, S. aureus ATCC29213: 18 ± 0.58 mm
B. subtilis ATCC6633 [3]
  inhibition zones, B. subtilis ATCC6633: 14 ± 1.53 mm
B. cereus DSM 4312 [4]
  inhibition zones, B. cereus DSM 4312: 20 ± 1.0 mm
St. pyogenez ATCC176 [5]
  inhibition zones, St. pyogenez ATCC176: 15 ± 0.0 mm
E. coli 111 [6]
  inhibition zones, E. coli 111: 19 ± 0.58 mm
E. aerogenes 2924
  inhibition zones, E. aerogenes 2924: 15 ± 1.0 mm
S. gallinarum [7]
  inhibition zones, S. gallinarum: 17 ± 0.58 mm
S. enteridis ATCC13076 [8]
  inhibition zones, S. enteridis ATCC13076: 18 ± 0.58 mm
S. aureus ATCC29213 [9]
  Minimum-inhibitory concentrations (MIC), S. aureus ATCC29213: 62.50 ± 36.08 µg/mL
B. subtilis ATCC6633 [10]
  Minimum-inhibitory concentrations (MIC), B. subtilis ATCC6633: 62.50 ± 0.0 µg/mL
B. cereus DSM 4312 [11]
  Minimum-inhibitory concentrations (MIC), B. cereus DSM 4312: 62.50 ± 18.04 µg/mL
St. pyogenez ATCC176 [12]
  MIC, St. pyogenez: 15.62 µg/mL
  Minimum-inhibitory concentrations (MIC), St. pyogenez ATCC176: 15.62 ± 9.02 µg/mL
E. coli 111 [13]
  Minimum-inhibitory concentrations (MIC), E. coli 111: 62.50 ± 0.0 µg/mL
P. aeruginosa ATCC9027
  Minimum-inhibitory concentrations (MIC), P. aeruginosa ATCC9027: 62.50 ± 18.04 µg/mL
E. aerogenes ATCC2924
  MIC, E. aerogenes: 15.62 µg/mL
  Minimum-inhibitory concentrations (MIC), E. aerogenes ATCC2924: 15.62 ± 0.0 µg/mL
S. gallinarum [14]
  MIC, S. gallinarum: 31.25 µg/mL
  Minimum-inhibitory concentrations (MIC), S. gallinarum: 31.25 ± 0.0 µg/mL
S. enteridis ATCC13076 [15]
  Minimum-inhibitory concentrations (MIC), S. enteridis ATCC13076: 62.50 ± 17.97 µg/mL
[16]
  MIC, joint range for 4 and 1 over the strains: 15.62 to 125 µg/mL
